Values quoted from earlier work, collected in US20050227949A1, “Compositions and methods for treatment of viral and bacterial infections” (priority 2004, published 2005).

Columns and labels:
herpes simplex = conditions: previously reported treatment of herpes simplex infections
suppressor T-cells = conditions: further reported uses; probably due to blockade of selected suppressor T-cells
HIV = conditions: previously reported

CN/C(=N/CCSCc1nc[nH]c1C)NC#N [cimetidine]
outbreak and duration of herpes zoster (herpes simplex): effectively reduced outbreak and duration of herpes zoster
immune functions (suppressor T-cells): improvements of various immune functions
treatment result in HIV patients (HIV): less encouraging results
